# Assay results reported in the kinase profiling compilation of Christmann-Franck et al. (2016).
# Legend:
# Test in all cases: Caliper, Mobility shift assay off-chip
# [1] = target: ABL1 (human) (UniProt P00519)
# [2] = tested on: ABL1 (human), P00519 [H396P]
# [3] = target: AKT2 (human) (UniProt P31751)
# [4] = target: BMX (human) (UniProt P51813)
# [5] = target: CAMK2B (human) (UniProt Q13554)
# [6] = target: CHEK2 (human) (UniProt O96017)
# [7] = target: CSNK1A1 (human) (UniProt P48729)
# [8] = target: CSNK1D (human) (UniProt P48730)
# Sequence of CSNK1D (human) (P48730 whole entry, looked up): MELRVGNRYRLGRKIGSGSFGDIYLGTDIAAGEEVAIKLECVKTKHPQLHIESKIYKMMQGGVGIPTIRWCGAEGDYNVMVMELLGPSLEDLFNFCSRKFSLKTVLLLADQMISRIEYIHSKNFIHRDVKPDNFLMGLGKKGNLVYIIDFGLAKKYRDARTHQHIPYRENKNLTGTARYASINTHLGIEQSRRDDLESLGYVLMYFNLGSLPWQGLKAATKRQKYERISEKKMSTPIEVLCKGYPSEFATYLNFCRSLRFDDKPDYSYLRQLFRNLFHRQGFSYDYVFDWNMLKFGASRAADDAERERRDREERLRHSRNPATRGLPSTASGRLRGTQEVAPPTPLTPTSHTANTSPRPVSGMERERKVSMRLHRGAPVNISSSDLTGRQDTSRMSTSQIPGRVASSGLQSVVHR
# [9] = target: DYRK1A (human) (UniProt Q13627)
# [10] = target: FLT3 (human) (UniProt P36888)
# [11] = target: IRAK4 (human) (UniProt Q9NWZ3)
# [12] = target: LCK (human) (UniProt P06239)
# Sequence of LCK (human) (P06239 whole entry, looked up): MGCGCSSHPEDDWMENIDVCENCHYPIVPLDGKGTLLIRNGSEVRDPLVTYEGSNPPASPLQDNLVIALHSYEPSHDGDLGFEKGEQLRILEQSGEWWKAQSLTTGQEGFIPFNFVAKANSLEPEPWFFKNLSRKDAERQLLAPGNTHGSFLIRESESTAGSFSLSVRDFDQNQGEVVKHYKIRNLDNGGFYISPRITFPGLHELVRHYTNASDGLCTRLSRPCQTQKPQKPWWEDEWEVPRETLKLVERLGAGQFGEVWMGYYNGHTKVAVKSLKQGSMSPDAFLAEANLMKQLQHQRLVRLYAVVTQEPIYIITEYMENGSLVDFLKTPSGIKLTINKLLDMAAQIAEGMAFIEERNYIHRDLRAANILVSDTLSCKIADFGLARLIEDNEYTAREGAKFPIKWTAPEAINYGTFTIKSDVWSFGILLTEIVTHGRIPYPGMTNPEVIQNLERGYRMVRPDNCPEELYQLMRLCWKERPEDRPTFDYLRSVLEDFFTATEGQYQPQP
# [13] = target: MAP4K4 (human) (UniProt O95819)
# [14] = target: MAPK1 (human) (UniProt P28482)
# [15] = target: MARK1 (human) (UniProt Q9P0L2)
# Sequence of MARK1 (human) (Q9P0L2 whole entry, looked up): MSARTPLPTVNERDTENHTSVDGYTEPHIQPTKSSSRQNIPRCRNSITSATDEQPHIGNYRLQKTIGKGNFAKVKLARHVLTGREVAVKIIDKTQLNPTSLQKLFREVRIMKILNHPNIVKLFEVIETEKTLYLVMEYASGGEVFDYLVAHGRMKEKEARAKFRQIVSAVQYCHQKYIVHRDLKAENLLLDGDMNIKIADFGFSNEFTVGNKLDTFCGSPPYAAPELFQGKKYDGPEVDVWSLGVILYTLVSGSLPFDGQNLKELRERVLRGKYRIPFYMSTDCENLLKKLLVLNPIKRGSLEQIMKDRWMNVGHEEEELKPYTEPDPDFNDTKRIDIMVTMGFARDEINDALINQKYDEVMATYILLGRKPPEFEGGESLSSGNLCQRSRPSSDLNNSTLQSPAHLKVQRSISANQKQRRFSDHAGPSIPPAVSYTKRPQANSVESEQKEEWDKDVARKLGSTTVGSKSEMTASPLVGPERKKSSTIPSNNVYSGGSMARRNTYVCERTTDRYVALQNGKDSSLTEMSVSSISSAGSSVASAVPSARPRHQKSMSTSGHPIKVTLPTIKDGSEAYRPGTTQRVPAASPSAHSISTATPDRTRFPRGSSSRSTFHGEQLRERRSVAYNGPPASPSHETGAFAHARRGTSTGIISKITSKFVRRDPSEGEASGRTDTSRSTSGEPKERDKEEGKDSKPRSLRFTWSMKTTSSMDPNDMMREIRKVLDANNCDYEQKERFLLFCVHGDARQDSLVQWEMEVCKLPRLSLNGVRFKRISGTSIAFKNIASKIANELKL
# [16] = target: NEK2 (human) (UniProt P51955)
# [17] = target: PAK2 (human) (UniProt Q13177)
# Sequence of PAK2 (human) (Q13177 whole entry, looked up): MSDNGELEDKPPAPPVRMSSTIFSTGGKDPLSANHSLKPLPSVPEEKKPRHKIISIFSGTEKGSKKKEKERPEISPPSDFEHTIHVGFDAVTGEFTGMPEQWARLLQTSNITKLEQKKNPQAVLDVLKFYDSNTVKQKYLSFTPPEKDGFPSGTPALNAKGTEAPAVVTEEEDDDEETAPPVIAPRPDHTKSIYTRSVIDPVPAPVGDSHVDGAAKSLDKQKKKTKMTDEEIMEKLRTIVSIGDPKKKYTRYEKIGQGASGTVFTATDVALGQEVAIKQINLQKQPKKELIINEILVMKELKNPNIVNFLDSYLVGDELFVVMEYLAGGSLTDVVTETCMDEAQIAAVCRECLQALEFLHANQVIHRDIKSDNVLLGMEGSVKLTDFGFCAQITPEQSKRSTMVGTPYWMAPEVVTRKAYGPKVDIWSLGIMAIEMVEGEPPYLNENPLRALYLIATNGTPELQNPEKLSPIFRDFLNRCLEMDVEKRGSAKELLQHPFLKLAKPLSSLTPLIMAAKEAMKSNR
# [18] = target: PRKCD (human) (UniProt Q05655)
# Sequence of PRKCD (human) (Q05655 whole entry, looked up): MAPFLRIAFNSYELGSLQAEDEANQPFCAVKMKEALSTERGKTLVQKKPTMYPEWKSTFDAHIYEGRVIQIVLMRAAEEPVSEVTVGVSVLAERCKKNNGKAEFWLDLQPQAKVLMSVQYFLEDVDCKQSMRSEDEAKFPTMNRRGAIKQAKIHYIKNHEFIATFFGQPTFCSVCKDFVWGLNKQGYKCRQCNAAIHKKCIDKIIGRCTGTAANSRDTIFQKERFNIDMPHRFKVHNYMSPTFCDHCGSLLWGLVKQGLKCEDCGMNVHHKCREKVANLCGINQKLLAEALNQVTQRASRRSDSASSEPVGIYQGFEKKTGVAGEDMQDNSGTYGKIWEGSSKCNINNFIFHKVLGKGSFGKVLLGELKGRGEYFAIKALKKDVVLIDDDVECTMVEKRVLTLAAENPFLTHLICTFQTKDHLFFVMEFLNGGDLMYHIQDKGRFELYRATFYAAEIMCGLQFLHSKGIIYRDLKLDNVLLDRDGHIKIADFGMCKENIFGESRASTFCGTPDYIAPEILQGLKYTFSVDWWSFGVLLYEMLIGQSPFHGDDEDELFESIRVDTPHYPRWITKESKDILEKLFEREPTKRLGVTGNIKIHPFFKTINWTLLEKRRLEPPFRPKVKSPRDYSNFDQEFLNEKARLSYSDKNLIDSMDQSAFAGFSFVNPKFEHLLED
# [19] = target: PRKCQ (human) (UniProt Q04759)
# [20] = target: PRKD1 (human) (UniProt Q15139)
# [21] = target: RAF1 (human) (UniProt P04049)
# [22] = target: ROCK2 (human) (UniProt O75116)
# [23] = target: RPS6KA1 KD1 KD2 (human) (UniProt Q15418)
# [24] = target: SYK (human) (UniProt P43405)
# Sequence of AKT2 (human) (P31751 whole entry, looked up): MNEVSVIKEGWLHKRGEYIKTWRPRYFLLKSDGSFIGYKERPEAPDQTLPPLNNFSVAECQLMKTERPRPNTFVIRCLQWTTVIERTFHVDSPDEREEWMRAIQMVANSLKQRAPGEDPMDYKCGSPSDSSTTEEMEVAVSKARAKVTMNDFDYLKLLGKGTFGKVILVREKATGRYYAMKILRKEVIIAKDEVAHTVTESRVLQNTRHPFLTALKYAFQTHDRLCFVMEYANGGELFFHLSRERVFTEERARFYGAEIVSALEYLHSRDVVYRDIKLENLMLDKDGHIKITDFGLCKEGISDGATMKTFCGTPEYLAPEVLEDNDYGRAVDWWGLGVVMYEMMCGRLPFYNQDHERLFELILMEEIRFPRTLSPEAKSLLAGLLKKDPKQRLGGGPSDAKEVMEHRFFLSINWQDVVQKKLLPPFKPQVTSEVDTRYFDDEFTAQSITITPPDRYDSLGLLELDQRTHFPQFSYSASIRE
# Sequence of CSNK1A1 (human) (P48729 whole entry, looked up): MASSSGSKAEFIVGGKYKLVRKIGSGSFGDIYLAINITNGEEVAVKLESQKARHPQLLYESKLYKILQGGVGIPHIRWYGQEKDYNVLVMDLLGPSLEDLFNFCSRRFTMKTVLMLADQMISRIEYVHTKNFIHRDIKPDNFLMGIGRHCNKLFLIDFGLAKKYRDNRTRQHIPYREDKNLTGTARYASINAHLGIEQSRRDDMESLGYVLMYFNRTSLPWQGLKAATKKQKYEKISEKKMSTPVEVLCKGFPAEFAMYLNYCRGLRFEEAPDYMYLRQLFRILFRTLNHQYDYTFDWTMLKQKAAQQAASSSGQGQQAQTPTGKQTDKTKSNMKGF
# Sequence of CHEK2 (human) (O96017 whole entry, looked up): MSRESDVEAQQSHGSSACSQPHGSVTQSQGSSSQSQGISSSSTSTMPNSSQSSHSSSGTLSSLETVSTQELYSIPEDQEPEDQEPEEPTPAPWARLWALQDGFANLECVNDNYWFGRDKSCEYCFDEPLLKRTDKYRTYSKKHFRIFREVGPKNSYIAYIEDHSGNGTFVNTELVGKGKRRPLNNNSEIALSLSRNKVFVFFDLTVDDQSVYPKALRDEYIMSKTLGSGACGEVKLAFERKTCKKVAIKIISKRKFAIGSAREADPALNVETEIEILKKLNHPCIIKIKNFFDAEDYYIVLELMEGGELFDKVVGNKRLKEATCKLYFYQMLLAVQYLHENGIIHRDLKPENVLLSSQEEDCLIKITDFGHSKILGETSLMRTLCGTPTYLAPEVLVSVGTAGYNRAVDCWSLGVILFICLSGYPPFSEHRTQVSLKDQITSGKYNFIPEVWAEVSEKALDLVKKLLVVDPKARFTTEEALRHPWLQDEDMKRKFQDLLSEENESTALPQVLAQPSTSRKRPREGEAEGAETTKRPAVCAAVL
# Sequence of CAMK2B (human) (Q13554 whole entry, looked up): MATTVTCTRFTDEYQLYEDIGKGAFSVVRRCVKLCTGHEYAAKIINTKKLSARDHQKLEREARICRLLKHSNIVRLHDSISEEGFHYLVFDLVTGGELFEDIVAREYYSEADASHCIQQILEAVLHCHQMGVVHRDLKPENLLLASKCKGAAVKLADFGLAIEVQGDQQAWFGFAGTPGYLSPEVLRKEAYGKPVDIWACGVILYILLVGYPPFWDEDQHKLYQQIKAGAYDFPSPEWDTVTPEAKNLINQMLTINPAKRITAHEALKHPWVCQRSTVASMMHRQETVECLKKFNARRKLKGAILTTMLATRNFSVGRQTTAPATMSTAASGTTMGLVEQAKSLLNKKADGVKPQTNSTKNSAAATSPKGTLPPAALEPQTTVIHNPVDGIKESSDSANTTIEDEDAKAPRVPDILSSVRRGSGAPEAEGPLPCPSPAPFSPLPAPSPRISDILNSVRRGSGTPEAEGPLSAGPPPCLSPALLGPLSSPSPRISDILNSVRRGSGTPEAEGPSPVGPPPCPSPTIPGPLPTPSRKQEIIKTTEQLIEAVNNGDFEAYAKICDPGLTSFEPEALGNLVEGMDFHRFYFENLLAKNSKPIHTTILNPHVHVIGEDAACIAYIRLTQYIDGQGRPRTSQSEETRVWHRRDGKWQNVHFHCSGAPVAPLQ
compound,measurement,setting,value
Cn1cc(-c2cnc3ccc4ccc(CS(N)(=O)=O)cc4c(=O)c3c2)cn1,inhibition,[1]; compound 0.1 µM,6.9%
same,inhibition,[1]; compound 1.0 µM,22.9%
same,inhibition,[2]; compound 0.1 µM,-0.9%
same,inhibition,[2]; compound 1.0 µM,9.4%
same,inhibition,[3]; compound 0.1 µM,1.7%
same,inhibition,[3]; compound 1.0 µM,7.1%
same,inhibition,[4]; compound 0.1 µM,1.6%
same,inhibition,[5]; compound 0.1 µM,-21.3%
same,inhibition,[5]; compound 1.0 µM,-19.3%
same,inhibition,[6]; compound 0.1 µM,-3.5%
same,inhibition,[6]; compound 1.0 µM,0.7%
same,inhibition,[7]; compound 0.1 µM,-2.8%
same,inhibition,[7]; compound 1.0 µM,-4.1%
same,inhibition,[8]; compound 0.1 µM,7.6%
same,inhibition,[8]; compound 1.0 µM,11.1%
same,inhibition,[9]; compound 0.1 µM,6.2%
same,inhibition,[9]; compound 1.0 µM,32.9%
same,inhibition,[10]; compound 0.1 µM,4.2%
same,inhibition,[10]; compound 1.0 µM,48.8%
same,inhibition,[11]; compound 0.1 µM,6%
same,inhibition,[11]; compound 1.0 µM,-8.2%
same,inhibition,[12]; compound 0.1 µM,2.4%
same,inhibition,[12]; compound 1.0 µM,-1.7%
same,inhibition,[13]; compound 0.1 µM,7.1%
same,inhibition,[13]; compound 1.0 µM,1.8%
same,inhibition,[14]; compound 0.1 µM,-5.5%
same,inhibition,[14]; compound 1.0 µM,0.8%
same,inhibition,[15]; compound 0.1 µM,16.5%
same,inhibition,[15]; compound 1.0 µM,81.8%
same,inhibition,[16]; compound 0.1 µM,-1.5%
same,inhibition,[16]; compound 1.0 µM,-7.5%
same,inhibition,[17]; compound 0.1 µM,1.7%
same,inhibition,[17]; compound 1.0 µM,0.8%
same,inhibition,[18]; compound 0.1 µM,5.1%
same,inhibition,[19]; compound 0.1 µM,5.2%
same,inhibition,[20]; compound 0.1 µM,-5.2%
same,inhibition,[20]; compound 1.0 µM,0.2%
same,inhibition,[21]; compound 0.1 µM,6.2%
same,inhibition,[21]; compound 1.0 µM,-3.8%
same,inhibition,[22]; compound 0.1 µM,3%
same,inhibition,[22]; compound 1.0 µM,2%
same,inhibition,[23]; compound 0.1 µM,-12.4%
same,inhibition,[23]; compound 1.0 µM,-3%
same,inhibition,[24]; compound 0.1 µM,1.9%
same,inhibition,[24]; compound 1.0 µM,7.6%
O=c1c2cc(CS(=O)(=O)NCc3ccccn3)ccc2ccc2ncc(C3CCNCC3)cc12,inhibition,[1]; compound 0.01 µM,-1.8%
same,inhibition,[1]; compound 0.1 µM,5.5%
same,inhibition,[2]; compound 0.01 µM,4.8%
same,inhibition,[2]; compound 0.1 µM,-2.5%
same,inhibition,[3]; compound 0.01 µM,-0.2%
same,inhibition,[3]; compound 0.1 µM,-1.6%
same,inhibition,[4]; compound 0.01 µM,-12.1%
same,inhibition,[4]; compound 0.1 µM,-3.8%
same,inhibition,[5]; compound 0.01 µM,79.2%
same,inhibition,[5]; compound 0.1 µM,-4.6%
same,inhibition,[6]; compound 0.01 µM,-5.2%
same,inhibition,[6]; compound 0.1 µM,-5.1%
same,inhibition,[7]; compound 0.01 µM,1.4%
same,inhibition,[7]; compound 0.1 µM,-0.5%
same,inhibition,[8]; compound 0.01 µM,2%
same,inhibition,[8]; compound 0.1 µM,-2.8%
same,inhibition,[9]; compound 0.01 µM,7.6%
same,inhibition,[9]; compound 0.1 µM,-4.3%
same,inhibition,[10]; compound 0.01 µM,0.2%
same,inhibition,[10]; compound 0.1 µM,5%
same,inhibition,[11]; compound 0.01 µM,19.1%
same,inhibition,[11]; compound 0.1 µM,-1.2%
same,inhibition,[12]; compound 0.01 µM,-2.9%
same,inhibition,[12]; compound 0.1 µM,3.3%
same,inhibition,[13]; compound 0.01 µM,-8.5%
same,inhibition,[13]; compound 0.1 µM,-10.7%
same,inhibition,[14]; compound 0.01 µM,-2.5%
same,inhibition,[14]; compound 0.1 µM,-0.1%
same,inhibition,[15]; compound 0.01 µM,-0.1%
same,inhibition,[15]; compound 0.1 µM,-2.9%
same,inhibition,[16]; compound 0.01 µM,-2.6%
same,inhibition,[16]; compound 0.1 µM,-2.3%
same,inhibition,[17]; compound 0.01 µM,0.1%
same,inhibition,[17]; compound 0.1 µM,3.6%
same,inhibition,[18]; compound 0.01 µM,11%
same,inhibition,[18]; compound 0.1 µM,2.4%
same,inhibition,[19]; compound 0.01 µM,3.4%
same,inhibition,[19]; compound 0.1 µM,-3.8%
same,inhibition,[20]; compound 0.01 µM,-2.8%
same,inhibition,[20]; compound 0.1 µM,-4.1%
same,inhibition,[21]; compound 0.01 µM,1.4%
same,inhibition,[21]; compound 0.1 µM,0.6%
same,inhibition,[22]; compound 0.01 µM,5.8%
same,inhibition,[22]; compound 0.1 µM,8.4%
same,inhibition,[23]; compound 0.01 µM,-1.6%
same,inhibition,[23]; compound 0.1 µM,13.5%
same,inhibition,[24]; compound 0.01 µM,-4.6%
same,inhibition,[24]; compound 0.1 µM,6.2%
Cn1cc(-c2cnc3ccc4ccc(CS(=O)(=O)CCc5ccccn5)cc4c(=O)c3c2)cn1,inhibition,[1]; compound 0.1 µM,0.2%
same,inhibition,[1]; compound 1.0 µM,11.6%
same,inhibition,[2]; compound 0.1 µM,10.6%
same,inhibition,[2]; compound 1.0 µM,13.9%
same,inhibition,[3]; compound 0.1 µM,-0.1%
same,inhibition,[3]; compound 1.0 µM,-0.5%
same,inhibition,[4]; compound 0.1 µM,-7.2%
same,inhibition,[4]; compound 1.0 µM,8.8%
same,inhibition,[5]; compound 0.1 µM,20.2%
same,inhibition,[6]; compound 0.1 µM,-0.4%
same,inhibition,[6]; compound 1.0 µM,4.5%
same,inhibition,[7]; compound 0.1 µM,-8.6%
same,inhibition,[7]; compound 1.0 µM,-0.9%
same,inhibition,[8]; compound 0.1 µM,7.8%
same,inhibition,[8]; compound 1.0 µM,8.9%
same,inhibition,[9]; compound 0.1 µM,-4.6%
same,inhibition,[9]; compound 1.0 µM,-2.8%
same,inhibition,[10]; compound 0.1 µM,1.3%
same,inhibition,[10]; compound 1.0 µM,24.2%
same,inhibition,[11]; compound 0.1 µM,-12%
same,inhibition,[11]; compound 1.0 µM,4.2%
same,inhibition,[12]; compound 0.1 µM,9.2%
same,inhibition,[12]; compound 1.0 µM,0.5%
same,inhibition,[13]; compound 0.1 µM,-2%
same,inhibition,[13]; compound 1.0 µM,10.6%
same,inhibition,[14]; compound 0.1 µM,-2.4%
same,inhibition,[14]; compound 1.0 µM,-1.9%
same,inhibition,[15]; compound 0.1 µM,1.2%
same,inhibition,[15]; compound 1.0 µM,-13.9%
same,inhibition,[16]; compound 0.1 µM,-5.7%
same,inhibition,[16]; compound 1.0 µM,-0.9%
same,inhibition,[17]; compound 0.1 µM,-38.4%
same,inhibition,[17]; compound 1.0 µM,-0.3%
same,inhibition,[18]; compound 0.1 µM,-36%
same,inhibition,[18]; compound 1.0 µM,2.1%
same,inhibition,[19]; compound 0.1 µM,-11.5%
same,inhibition,[19]; compound 1.0 µM,-19.7%
same,inhibition,[20]; compound 0.1 µM,-3.6%
same,inhibition,[20]; compound 1.0 µM,-6.6%
same,inhibition,[21]; compound 0.1 µM,5.1%
same,inhibition,[21]; compound 1.0 µM,1.4%
same,inhibition,[22]; compound 0.1 µM,-6.7%
same,inhibition,[22]; compound 1.0 µM,-5.4%
same,inhibition,[23]; compound 0.1 µM,-15.2%
same,inhibition,[23]; compound 1.0 µM,-0.8%
same,inhibition,[24]; compound 0.1 µM,1.2%
same,inhibition,[24]; compound 1.0 µM,-1.7%
Cn1cc(-c2cnc3ccc4ccc(CS(=O)(=O)NCC5CCCCN5)cc4c(=O)c3c2)cn1 (stereo unspecified),inhibition,[1]; compound 0.1 µM,23.1%
same,inhibition,[1]; compound 1.0 µM,61.5%
same,inhibition,[2]; compound 0.1 µM,14.9%
same,inhibition,[3]; compound 0.1 µM,0.7%
same,inhibition,[3]; compound 1.0 µM,1.9%
same,inhibition,[4]; compound 0.1 µM,-17.3%
same,inhibition,[4]; compound 1.0 µM,-2.8%
same,inhibition,[5]; compound 0.1 µM,2.1%
same,inhibition,[6]; compound 0.1 µM,4.63%
same,inhibition,[6]; compound 1.0 µM,-0.5%
same,inhibition,[7]; compound 0.1 µM,-5%
same,inhibition,[7]; compound 1.0 µM,-11%
same,inhibition,[8]; compound 0.1 µM,20.4%
same,inhibition,[8]; compound 1.0 µM,7.4%
same,inhibition,[9]; compound 0.1 µM,2.3%
same,inhibition,[9]; compound 1.0 µM,2.1%
same,inhibition,[10]; compound 0.1 µM,11%
same,inhibition,[10]; compound 1.0 µM,36.8%
same,inhibition,[11]; compound 0.1 µM,31.2%
same,inhibition,[11]; compound 1.0 µM,40.2%
same,inhibition,[12]; compound 0.1 µM,18.4%
same,inhibition,[12]; compound 1.0 µM,-1.2%
same,inhibition,[13]; compound 0.1 µM,4.1%
same,inhibition,[13]; compound 1.0 µM,15.7%
same,inhibition,[14]; compound 0.1 µM,1.1%
same,inhibition,[14]; compound 1.0 µM,-4.4%
same,inhibition,[15]; compound 0.1 µM,-3.9%
same,inhibition,[15]; compound 1.0 µM,33.5%
same,inhibition,[16]; compound 0.1 µM,2.7%
same,inhibition,[16]; compound 1.0 µM,-2.2%
same,inhibition,[17]; compound 0.1 µM,-7.9%
same,inhibition,[17]; compound 1.0 µM,0.9%
same,inhibition,[18]; compound 0.1 µM,-38.2%
same,inhibition,[18]; compound 1.0 µM,-8.2%
same,inhibition,[19]; compound 0.1 µM,-15.1%
same,inhibition,[19]; compound 1.0 µM,2.1%
same,inhibition,[20]; compound 0.1 µM,-8.3%
same,inhibition,[20]; compound 1.0 µM,-1.9%
same,inhibition,[21]; compound 0.1 µM,5.4%
same,inhibition,[21]; compound 1.0 µM,-0.8%
same,inhibition,[22]; compound 0.1 µM,3.6%
same,inhibition,[22]; compound 1.0 µM,-1.6%
same,inhibition,[23]; compound 0.1 µM,8.6%
same,inhibition,[23]; compound 1.0 µM,0%
same,inhibition,[24]; compound 0.1 µM,13.6%
same,inhibition,[24]; compound 1.0 µM,0.3%
